From the supplement of paper PMC10307832

Tests used:
[1] = compound: C1=CC2=C(C=C(C(=C2N=C1)O)N=NC3=CC4=C(C=C3)C=C(C=C4)S(=O)(=O)O)S(=O)(=O)O + CCNC(=O)c1noc(-c2cc(C(C)C)c(O)cc2O)c1-c1ccc(CN2CCOCC2)cc1 [Luminespib] (partner 0.01 µM); assay: relative viability (nuclei count vs DMSO), 5 days (fraction); higher = more cells survive
Summary of the method: (§1)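 After 5 days of treatment, lung cancer cells in 1536-well plates were fixed and stained in a single step (final 0.05% Triton X-100, 1% formaldehyde, 1 ug/ml Hoechst) and their nuclei counted on 4× images. Treatment had been applied by pin tool the day after seeding as one drug alone or as a fixed anchor-drug dose with five library-drug doses (not always all listed) in √10 steps. Relative viability is the nuclei count of treated wells divided by that of vehicle wells, and values are medians of duplicate plates.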

[2] = compound: C1=CC2=C(C=C(C(=C2N=C1)O)N=NC3=CC4=C(C=C3)C=C(C=C4)S(=O)(=O)O)S(=O)(=O)O + Cc1nc(Nc2ncc(C(=O)Nc3c(C)cccc3Cl)s2)cc(N2CCN(CCO)CC2)n1 [Dasatinib] (partner 0.075 µM); assay: as above
Summary of the method: as §1

LCLC-97TM1
relative viability ([1]; first compound 0.08 µM): 0.963
relative viability ([1]; first compound 0.253 µM): 0.678
relative viability ([1]; first compound 0.8 µM): 0.714
relative viability ([1]; first compound 2.53 µM): 0.805
relative viability ([1]; first compound 8 µM): 0.801
relative viability ([2]; first compound 0.08 µM): 0.705
relative viability ([2]; first compound 0.253 µM): 0.842
relative viability ([2]; first compound 0.8 µM): 0.691
relative viability ([2]; first compound 2.53 µM): 0.779
relative viability ([2]; first compound 8 µM): 0.865

NCI-H727
relative viability ([1]; first compound 0.08 µM): 0.478
relative viability ([1]; first compound 0.253 µM): 0.45
relative viability ([1]; first compound 0.8 µM): 0.327
relative viability ([1]; first compound 2.53 µM): 0.346
relative viability ([1]; first compound 8 µM): 0.359
relative viability ([2]; first compound 0.08 µM): 0.454
relative viability ([2]; first compound 0.253 µM): 0.39
relative viability ([2]; first compound 0.8 µM): 0.352
relative viability ([2]; first compound 2.53 µM): 0.412
relative viability ([2]; first compound 8 µM): 0.345

NCI-H1355
relative viability ([1]; first compound 0.08 µM): 0.737
relative viability ([1]; first compound 0.253 µM): 0.735
relative viability ([1]; first compound 0.8 µM): 0.646
relative viability ([1]; first compound 2.53 µM): 0.68
relative viability ([1]; first compound 8 µM): 0.775
relative viability ([2]; first compound 0.08 µM): 0.764
relative viability ([2]; first compound 0.253 µM): 0.754
relative viability ([2]; first compound 0.8 µM): 0.708
relative viability ([2]; first compound 2.53 µM): 0.77
relative viability ([2]; first compound 8 µM): 0.665

HOP-62
relative viability ([1]; first compound 0.08 µM): 0.878
relative viability ([1]; first compound 0.253 µM): 0.773
relative viability ([1]; first compound 0.8 µM): 0.916
relative viability ([1]; first compound 2.53 µM): 0.919
relative viability ([1]; first compound 8 µM): 0.898
relative viability ([2]; first compound 0.08 µM): 0.69
relative viability ([2]; first compound 0.253 µM): 0.657
relative viability ([2]; first compound 0.8 µM): 0.676
relative viability ([2]; first compound 2.53 µM): 0.588
relative viability ([2]; first compound 8 µM): 0.653

NCI-H2085
relative viability ([1]; first compound 0.08 µM): 0.409
relative viability ([1]; first compound 0.253 µM): 0.419
relative viability ([1]; first compound 0.8 µM): 0.426
relative viability ([1]; first compound 2.53 µM): 0.367
relative viability ([1]; first compound 8 µM): 0.44
relative viability ([2]; first compound 0.08 µM): 0.277
relative viability ([2]; first compound 0.253 µM): 0.253
relative viability ([2]; first compound 0.8 µM): 0.254
relative viability ([2]; first compound 2.53 µM): 0.208
relative viability ([2]; first compound 8 µM): 0.291

SW 900
relative viability ([1]; first compound 0.08 µM): 0.175
relative viability ([1]; first compound 0.253 µM): 0.2
relative viability ([1]; first compound 0.8 µM): 0.18
relative viability ([1]; first compound 2.53 µM): 0.186
relative viability ([1]; first compound 8 µM): 0.163
relative viability ([2]; first compound 0.08 µM): 0.596
relative viability ([2]; first compound 0.253 µM): 0.668
relative viability ([2]; first compound 0.8 µM): 0.619
relative viability ([2]; first compound 2.53 µM): 0.52
relative viability ([2]; first compound 8 µM): 0.743
